Results on 5 molecules are retold here after patent publication US11684763B2, “Multi-component bio-active drug delivery and controlled release to the skin by microneedle array devices” (University of Pittsburgh—Of the Commonwealth System of …, priority 2015, dated 2023).

For data set [1], the system named is epidermal cells of living human skin explants. Conditions: 5 mg/g of CMC; arrays removed after 5 minutes; 72 hours of exposure. The procedure:
Cytoxan® was integrated at a concentration of 5 mg/g of CMC, enabling delivery of approximately about 140 μg per array. This is a therapeutically relevant concentration based on the area of skin targeted, yet well below levels associated with systemic toxicities. Living human skin organ cultures were used to assess the cytotoxicty of Cytoxan®. Cytoxan® was delivered by application of arrays to skin explants as we previously described. Arrays and residual material were removed 5 minutes after application, and after 72 hours of exposure, culture living skin explants were cryo-sectioned and fixed. Apoptosis was evaluated using green fluorescent TUNEL assay (In Situ Cell Death Detection Kit, TMR […], Roche, cat #:11-684-795-910).

Data set [2] in a line: Dye release from MNAs inserted into 4% agar test-gels. Format: physicochemical. Conditions: dually loaded MNA. From the text: To illustrate the delivery of multiple drugs with distinct release kinetics, MNAs were fabricated to delivery two distinct cargos by distinct release kinetics. Specifically, MNAs were fabricated to release the marker Toluidine Blue in an initial burst, followed by a sustained release of the marker FD&C Red40. Dyes were directly loaded in the MNA scaffold matrix (in this case CMC) of the needle tips and in some cases a second dye, encapsulated in a sustained release polymer was layer directly below. MNAs were inserted into 4% agar test-gels and removed after 1 min.
Images of dye diffusion were collected at the indicated time points (FIG. 39A). […] Alternatively, MNAs were fabricated with toluidine blue tip-loaded and FD&C Red40 encapsulated in a sustained release polymer (FIG. 39C). MNAs were inserted into 4% agar test-gel and removed after 1 min. Images were collected at the indicated time-points. […] Upper panels depict images of microneedles from MNAs before application. The middle images are the imprints of the arrays 1 minute after application and MNA removal. Lower panels depicted the indicated representative magnified images at the indicated time points.

In a further data set the test system is B16 skin tumors. As to the kind of experiment: B16 melanoma model: established skin tumors treated with MNAs. The note with it: MNA once weekly for three weeks; for tumor growth: compared to untreated tumor bearing animals; for survival: untreated animals 100% mortality.

Experimental for B16 skin tumors: The B16 melanoma model was used as a model tumor to test these novel approaches.
Visible established cutaneous tumors were treated once weekly for three weeks with MNAs containing either doxorubicin alone, Poly(I:C) alone, or doxorubicin and Poly(I:C) incorporated into the same MNA. The doxorubicin dose chosen corresponds to an MNA dose that induces apoptosis in human skin without causing necrosis. Tumor growth and survival were measured regularly for the duration of the study.

Turning to `O=P1(N(CCCl)CCCl)NCCCO1` (centres unmarked) [Cytoxan®, cyclophosphamide], the “apoptosis of epidermal cells (TUNEL)” value in data set [1] is listed as “extensive apoptosis of epidermal cells”.

With `COc1cc(S(=O)(=O)[O-])c(C)cc1N=Nc1c(O)ccc2cc(S(=O)(=O)[O-])ccc12.[Na+].[Na+]` [FD&C Red40], the “release of encapsulated dye” value in data set [2] (dye encapsulated in a sustained release polymer) was “released slowly over an extended time period”. For the same molecule, the “period of release from depot” value in data set [2] (dye in underlying layer of sustained release polymer) came to 10 days.

As for `Cc1cc2nc3ccc(N(C)C)cc3[s+]c2cc1N.[Cl-]` [Toluidine Blue], the “release of tip-loaded dye” value in data set [2] (dye in CMC in the needle tip) is on record as “released in an initial burst”.

With `COc1cccc2c1C(=O)c1c(O)c3c(c(O)c1C2=O)C[C@@](O)(C(=O)CO)C[C@@H]3O[C@H]1C[C@H](N)[C@H](O)[C@H](C)O1` [doxorubicin], in the data set on B16 skin tumors, the tumor growth entry was “slowed tumor growth” and the survival was determined as 30%.

As to Poly(I:C), in the data set with B16 skin tumors, the tumor growth result was “slowed tumor growth” and the survival is 50%.
